According to patent US20130123364A1 (priority 2011, published 2013):
“Also recorded” adds a separate entry of the source.

Tested on: lung alveoli of mice damaged by toxic tobacco smoke exposure
Assay: Mouse model of intoxication by chronic inhalation of tobacco smoke, L-NIL in drinking water
Assay type: in vivo
Method: The regeneration and healing of the lung alveoli by L-NIL is shown in a mouse model of intoxication by chronic inhalation of tobacco smoke. In this model, mice are exposed to a stream of tobacco smoke in a concentration of 140 mg/m^3 for 6 h per day, 5 days a week over a period of up to 8 month.
The structural and functional pulmonary changes due to toxic smoke exposure were quantified with techniques suitable for this purpose. To assess the degree of alveolar damage, the mean linear intercept, alveolar septal wall thickness and the air space volume was quantified.
Parameters for the extent of vascular remodeling comprise the measurement of vascular wall thickness, staining for alpha-smooth muscle actin and von-Willebrand factor as well as the mean cross-sectional area of the vessels.
Functional measurements include the quantification of the lung function in spontaneously breathing as well as artificially ventilated mice with respect to airway resistance, lung compliance and volume flow. To evaluate functional changes of the vessels, lungs are investigated in an isolated perfused and ventilated experimental set-up, and pulmonary vascular resistance and reactivity are measured. The vascular reactivity is determined by quantifying the extent of vasoconstriction after addition of phenylephrine and can be deduced from dose/effect curves.
In a second experiment, L-NIL was administered orally via drinking water in a concentration of 600 μg/ml for a period for 3 months to treat mice with alveolar damage/destruction as a result of 8 months of toxic smoke exposure.

[1] = curative: oral L-NIL in drinking water 600 μg/ml for 3 months after 8 months of toxic smoke exposure

[H]/N=C(/C)NCCCC[C@H](N)C(=O)O [L-NIL, N^6-(1-iminoethyl)-L-lysine]
Proliferation, PCNA-positive cells in lung sections (FIGS. 5A to 5D) (L-NIL for 3 month after lung exposure to toxic smoke for 8 months): induction of proliferation
Elastic fibers network, elastin-stained lungs (FIGS. 3A to 3D) (L-NIL treatment after destruction by toxic tobacco smoke exposure): regeneration of the elastic fibers network
Total number of alveoli assessed by quantitative stereology (FIG. 2) (L-NIL treatment after toxic tobacco smoke exposure): regeneration of alveoli
Lung function [1]: lung function improvement
Regeneration of alveolar lung structure [1]: regeneration of the damaged or destroyed lung alveoli; also recorded: complete regeneration of the alveolar lung structure
Protection against alveolar damage/destruction (alveolar morphometry and lung functional measurements) (preventive: oral L-NIL in drinking water 600 μg/ml in parallel to smoke exposure over 8 months): complete protection against alveolar damage/destruction
